The results in this text go back to patent US20250092022A1, “MUSCARINIC RECEPTOR 4 ANTAGONISTS AND METHODS OF USE” (Neurocrine Biosciences, Inc., priority 2021, published 2025).

This assay addresses human M4 receptor (Homo sapiens (Human), UniProt P08173). Description: Binding assay: inhibition of radioligand (tritiated N-methylscopolamine) binding to membranes from CHO cells expressing human M4 receptor. To be noted: CHO cell membranes, 1.5 nM tritiated N-methylscopolamine. The protocol:
Binding affinity (Ki) for the compounds was measured by inhibition of radioligand binding to membranes from CHO cells expressing human M4 receptor. Membranes were prepared by nitrogen cavitation and differential centrifugation as previously described (Hoare et al., Mol. Pharmacol. 2003 March; 63(3): 751-65). The radioligand employed was tritiated N-methylscopolamine, used at a concentration of 1.5 nM. A dose-response of twelve concentrations of compound was used, ranging from […]. The assay buffer was 50 mM HEPES, 100 mM NaCl, 5 mM MgCl2, 1 mM ethylenediaminetetraacetic acid, pH-adjusted to pH 7.4. Membranes, radioligand and compound were incubated together for 90 minutes at 37° C., in a total volume of 150 μL in a 96-well plate. Receptor-bound radioligand was then collected by harvesting the assay over glass fiber filters pretreated with polyethylenimine to trap the cell membranes, using rapid vacuum filtration. Harvesting and radioactivity counting was conducted as previously described (see, e.g., Hoare et al., Mol. Pharmacol. 2003 63(3):751-65); Erratum at Mol. Pharmacol. 2005 July; 68(1): 260).

Some results are limits rather than exact numbers.

Chain of human M4 receptor (P08173 whole entry): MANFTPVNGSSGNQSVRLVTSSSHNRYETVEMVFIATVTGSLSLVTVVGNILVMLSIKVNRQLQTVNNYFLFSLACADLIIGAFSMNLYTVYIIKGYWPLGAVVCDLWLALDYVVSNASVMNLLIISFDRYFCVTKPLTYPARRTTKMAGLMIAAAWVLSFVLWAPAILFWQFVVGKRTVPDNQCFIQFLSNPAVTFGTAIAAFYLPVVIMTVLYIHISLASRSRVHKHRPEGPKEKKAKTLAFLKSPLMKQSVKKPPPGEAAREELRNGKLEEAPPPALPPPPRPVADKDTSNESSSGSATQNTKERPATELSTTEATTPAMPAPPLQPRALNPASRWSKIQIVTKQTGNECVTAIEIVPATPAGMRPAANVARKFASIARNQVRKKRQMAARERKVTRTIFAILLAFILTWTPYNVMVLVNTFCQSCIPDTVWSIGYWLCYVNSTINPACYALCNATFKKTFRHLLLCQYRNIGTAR

Consider `C[C@@H]1CN(c2ncc(OCC(O)CF)cn2)C[C@H](C)N1C(=O)OC1CC2(C1)CN(Cc1ccccc1)C2` (stereo partly drawn) [Compound 53, 2-benzyl-2-azaspiro [3.3]heptan-6-yl (2R,6S)-4-[5-(3-fluoro-2-hydroxypropoxy)pyrimidin-2-yl]-2,6-dimethyl-piperazine-1-carboxylate], for which the inhibition constant (Ki) (as a rule, a dissociation constant, usually derived from enzyme kinetics or from competition with a known ligand) was at least 0.5 µM.

The compound `COc1ccccc1CN1CC2(CC(OC(=O)N3[C@H](C)CN(c4ncc(S(C)(=O)=O)cn4)C[C@@H]3C)C2)C1` [Compound 62, 2-[(2-methoxyphenyl)methyl]-2-azaspiro[3.3] heptan-6-yl (2R,6S)-4-(5-methanesulfonylpyrimidin-2-yl)-2,6-dimethyl-piperazine-1-carboxylate] displayed an inhibition constant (Ki) of at least 0.5 µM.

Regarding `C[C@@H]1CN(c2ncc(S(=O)(=O)C3CC3)cn2)C[C@H](C)N1C(=O)NC1CC2(C1)CN(Cc1ccccc1)C2` [Compound 3, (2R,6S)-N-{2-benzyl-2-azaspiro[3.3]heptan-6-yl}-4-[5-(cyclopropanesulfonyl)pyrimidin-2-yl]-2,6-dimethylpiperazine-1-carboxamide], the inhibition constant Ki was under 0.1 µM.

With `Cc1ccc(CN2CC3(CC(OC(=O)N4[C@H](C)CN(c5ncc(S(C)(=O)=O)cn5)C[C@@H]4C)C3)C2)cc1` [Compound 61, 2-[(4-methylphenyl)methyl]-2-azaspiro[3.3] heptan-6-yl (2R,6S)-4-(5-methanesulfonylpyrimidin-2-yl)-2,6-dimethyl-piperazine-1-carboxylate], the inhibition constant (Ki) was at least 0.5 µM.

In turn, `C[C@@H]1CN(c2ncc(N3CCC3=O)cn2)C[C@H](C)N1C(=O)OC1CC2(C1)CN(Cc1ccccc1)C2` [Compound 29, 2-benzyl-2-azaspiro [3.3]heptan-6-yl (2R,6S)-2,6-dimethyl-4-[5-(2-oxoazetidin-1-yl)pyrimidin-2-yl] piperazine-1-carboxylate] showed an inhibition constant Ki of at least 0.5 µM.

Take `C[C@@H]1CN(c2ncc([S+](C)[O-])cn2)C[C@H](C)N1C(=O)OC1CC2(C1)CN(Cc1ccccc1)C2` (stereo partly drawn) [Compound 23, 2-benzyl-2-azaspiro [3.3]heptan-6-yl (2R,6S)-4-(5-methane-sulfinylpyrimidin-2-yl)-2,6-dimethylpiperazine-1-carboxylate]: the inhibition constant (Ki) is 0.1 to 0.5 µM.

For the compound `CCS(=O)(=O)c1cnc(N2CCN(C(=O)NC3CC4(C3)CN(Cc3ccccc3)C4)[C@H](C)C2)nc1` [Compound 7, (2R)-N-{2-benzyl-2-azaspiro[3.3]heptan-6-yl}-4-[5-(ethanesulfonyl)pyrimidin-2-yl]-2-methylpiperazine-1-carboxamide], the inhibition constant Ki lay within 0.1 to 0.5 µM.

The compound `CCS(=O)(=O)c1cnc(N2C[C@@H](C)N(C(=O)OC3CC4(C3)CN(Cc3ccccc3)C4)C[C@@H]2C)nc1` [Compound 11, 2-benzyl-2-azaspiro [3.3]heptan-6-yl (2R,5S)-4-[5-(ethane-sulfonyl)pyrimidin-2-yl]-2,5-dimethylpiperazine-1-carboxylate] had a Ki of under 0.1 µM.

`COc1ccc(CN2CC3(CC(OC(=O)N4[C@H](C)CN(c5ncc(S(C)(=O)=O)cn5)C[C@@H]4C)C3)C2)cc1` [Compound 60, 2-[(4-methoxyphenyl)methyl]-2-azaspiro[3.3] heptan-6-yl (2R,6S)-4-(5-methanesulfonylpyrimidin-2-yl)-2,6-dimethyl-piperazine-1-carboxylate] showed a Ki of under 0.1 µM.

The compound `Cc1nc(N2C[C@@H](C)N(C(=O)OC3CC4(C3)CN(Cc3ccccc3)C4)C[C@@H]2C)ncc1S(C)(=O)=O` [Compound 25, 2-benzyl-2-azaspiro [3.3]heptan-6-yl (2R,5S)-4-(5-methane-sulfonyl-4-methyl-pyrimidin-2-yl)-2,5-dimethylpiperazine-1-carboxylate] had an inhibition constant Ki of under 0.1 µM.

Regarding `CCS(=O)(=O)c1cnc(N2CCN(C(=O)OC3CC4(C3)CN(Cc3ccccc3)C4)[C@H](C)C2)nc1` [Compound 21, 2-benzyl-2-azaspiro [3.3]heptan-6-yl (2R)-4-[5-(ethanesulfonyl)-pyrimidin-2-yl]-2-methylpiperazine-1-carboxylate], the Ki was under 0.1 µM.
